Key:
PRMT1 [1] = biological target: T1, PRMT1 (Homo sapiens, UniProt Q99873); test: SAHH-coupled fluorescence assay, inhibition of PRMT1; assay type: biochemical
T1 construct: made in house
Outline: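 PRMT1 (0.1 μM) was run with 10 μM AdoMet, 5 μM SAHH and 10 μM ThioGlo4 in 2.5 mM HEPES pH 7.0, 25 mM NaCl, 25 μM EDTA, 50 μM TCEP and 0.01% Triton X-100. Fluorescence (ex 400/em 465 nm) was monitored for 15 min. Assays were done in duplicate.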

PRMT6 = PRMT6 (Homo sapiens, UniProt Q96LA8); test: selectivity of YD1113/YD1290 on PRMT panel, PRMT6; assay type: biochemical; conditions: 10 μM; PRMT panel
Chain of PRMT6 (Q96LA8 whole entry, species assumed): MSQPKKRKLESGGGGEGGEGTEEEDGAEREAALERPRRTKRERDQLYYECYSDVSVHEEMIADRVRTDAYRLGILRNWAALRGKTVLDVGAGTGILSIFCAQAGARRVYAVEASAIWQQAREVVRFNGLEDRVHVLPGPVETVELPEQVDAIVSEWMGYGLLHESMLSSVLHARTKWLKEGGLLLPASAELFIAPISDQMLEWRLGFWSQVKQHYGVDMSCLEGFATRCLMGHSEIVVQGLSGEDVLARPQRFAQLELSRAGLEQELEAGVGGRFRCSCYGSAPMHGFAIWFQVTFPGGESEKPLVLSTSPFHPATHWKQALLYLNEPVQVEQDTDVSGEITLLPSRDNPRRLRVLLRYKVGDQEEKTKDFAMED
Procedure: (§1) The selectivity of compounds YD1113 and YD1290 on PRMTs were performed by Reaction Biology Corp.
(§2) Next, the selectivity of YD1113 was investigated on a panel of PRMTs at 10 μM.
(§3) After validating the benzyl urea moiety as an unconventional homocysteine mimic of SAH for PRMTs, it was hypothesized that incorporating the benzyl urea moiety into the original pan PRMT inhibitor II757 would build a potent bisubstrate inhibitor. […] To enable a stable tri-substitution, the sulfur atom with a nitrogen atom was replaced. YD1290 was synthesized following the reported methods 9, 15 and tested in a radioactivity assay for PRMTs (FIG. 6b).

PRMT8 = PRMT8 (Homo sapiens, UniProt Q9NR22); test: selectivity of YD1113/YD1290 on PRMT panel, PRMT8; assay type: biochemical; conditions: 10 μM; PRMT panel
Chain of PRMT8 (Q9NR22 whole entry, species assumed): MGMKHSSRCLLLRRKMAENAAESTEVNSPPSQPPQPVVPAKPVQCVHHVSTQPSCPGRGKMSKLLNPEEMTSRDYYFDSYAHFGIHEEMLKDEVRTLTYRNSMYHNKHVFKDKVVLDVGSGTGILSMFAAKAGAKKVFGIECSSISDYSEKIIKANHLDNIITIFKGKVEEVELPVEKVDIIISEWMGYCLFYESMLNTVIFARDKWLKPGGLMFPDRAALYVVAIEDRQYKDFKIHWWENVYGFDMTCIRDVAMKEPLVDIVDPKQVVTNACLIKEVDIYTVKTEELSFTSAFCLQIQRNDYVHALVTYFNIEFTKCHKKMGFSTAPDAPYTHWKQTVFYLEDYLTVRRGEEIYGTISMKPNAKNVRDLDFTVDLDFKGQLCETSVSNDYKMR
Procedure: as §1, §2, §3

PRMT3/4/5 = test: inhibition of PRMT3/4/5 (summary); assay type: biochemical; conditions: range over PRMT3/4/5
Procedure: as §1

PRMT1 [2] = biological target: T1, PRMT1; test: thermal shift assay PRMT1; assay type: binding; conditions: 100 μM compound, 10 μM protein
Procedure: (§4) The fluorescence-based thermal shift assay was performed using a StepOne plus qPCR instrument (Thermal Fisher). For PRMT1, 10 μM of protein was mixed with 2× sypro orange and DMSO, or 100 μM SAM, or 100 μM YD1113, or 100 μM YD1290 in a buffer consisting of 2.5 mM HEPES (pH=7.0), 25 mM NaCl, 25 μM EDTA, 50 μM TCEP, 0.01% Triton X-100. For PRMT3, 20 μM of protein was mixed with 2× sypro orange and DMSO, or 100 μM SAM, or 100 μM YD1113, or 100 μM YD1290 in a buffer consisting of 20 mM Tris (pH=7.5), 0.01% Triton X-100. For PRMT4, 20 μM of protein was mixed with 2× sypro orange and DMSO, or 100 μM SAM, or 100 μM YD1113, or 100 μM YD1290 in a buffer consisting of 20 mM bicine (pH=8.5), 0.01% Triton X-100. All samples were heated from 25° C. to 75° C. at an increased rate of 0.5° C. per minute. Protein denaturation was monitored by the increased fluorescence signal of Sypro Orange, which captures exposed hydrophobic residues during thermal unfolding. The recorded curves were analyzed by the software StepOne plus and plotted in GraphPad Prism 8 software.
(§5) Next, the thermal shift assay (TSA) was conducted as an orthogonal method to examine the effects of YD1290 on the thermal stability of PRMT1, 3, and 4 (Figure S1).

PRMT4 = biological target: T2, PRMT4 (Homo sapiens, UniProt Q86X55); test: thermal shift assay PRMT4; assay type: binding; conditions: 100 μM compound, 20 μM protein
T2 construct: PRMT4 (residues 140-480) was cloned into the pFBOH-MHL vector; tag of the pFBOH-MHL vector (poly-His implied by Ni-NTA purification; not described); made in house; host or cells: Sf9 insect cells
T2 sequence (Q86X55 140-480): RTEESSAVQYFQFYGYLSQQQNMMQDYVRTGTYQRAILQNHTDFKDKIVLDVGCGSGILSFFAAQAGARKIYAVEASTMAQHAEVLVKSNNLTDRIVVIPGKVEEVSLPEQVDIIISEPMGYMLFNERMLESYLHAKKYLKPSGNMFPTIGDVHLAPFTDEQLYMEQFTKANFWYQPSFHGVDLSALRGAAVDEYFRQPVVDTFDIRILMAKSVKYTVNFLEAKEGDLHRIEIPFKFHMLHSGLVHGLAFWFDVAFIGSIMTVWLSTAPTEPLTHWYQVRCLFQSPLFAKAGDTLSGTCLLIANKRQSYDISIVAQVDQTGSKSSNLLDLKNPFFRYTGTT
Procedure: as §4, §5

PRMT3 = PRMT3 (Homo sapiens, UniProt O60678); test: inhibition mechanism study on PRMT3, SAHH-coupled fluorescence; assay type: biochemical; set-up: PRMT3 (residues 211-531) was cloned into the pET28a-MHL expression vector; tag of the pET28a-MHL vector (not described); made in house; host or cells: Escherichia coli BL21(DE3); conditions: role: inhibitor
Chain of PRMT3 (O60678 211-531): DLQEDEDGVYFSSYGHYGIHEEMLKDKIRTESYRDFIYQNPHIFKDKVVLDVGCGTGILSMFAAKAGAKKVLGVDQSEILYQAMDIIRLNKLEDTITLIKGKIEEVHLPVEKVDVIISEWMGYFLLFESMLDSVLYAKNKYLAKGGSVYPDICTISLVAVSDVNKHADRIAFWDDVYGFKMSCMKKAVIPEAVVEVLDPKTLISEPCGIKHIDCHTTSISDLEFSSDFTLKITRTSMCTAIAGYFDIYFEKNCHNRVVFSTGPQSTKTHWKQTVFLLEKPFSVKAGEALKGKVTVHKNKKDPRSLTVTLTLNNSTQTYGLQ
Procedure: The inhibition mechanism of YD1113 on PRMT3 was studied with the fluorescence-based SAHH-coupled assay. Varying concentrations of SAM (from 30 to 240 μM) with 30 μM fixed concentration of H4-21 or varying concentration of H4-21 (from 15 to 240 μM) with 30 μM fixed concentration of SAM were included in reactions at concentration of YD1113 ranging from 1.5 nM to 100 μM.
All the IC50 values were determined in triplicate. Fluorescence was monitored on a BMG CLARIOstar microplate reader with excitation 380 nm and emission 505 nm. Data were processed by using GraphPad Prism software 8.0.
The sensitivity of YD1113 to the steric effects in the above SAR studies (Table 1; FIG. 9) is inexplicable by a relatively open and tolerable peptide substrate binding channel of PRMTs. (Tewary et al. 2019) This contradiction prompted the hypothesis that YD1113 binds to an alternative pocket rather than acts as a bisubstrate analogue to reach the peptide binding pocket. This hypothesis was tested by investigating its inhibition mechanism with a SAHH-coupled fluorescence-based assay. (Richardson et al. 2015) The IC50 values of YD1113 remained constant with the increased ratio of peptide/Km (FIG. 3a-b) while increasing linearly with the ratio of SAM/Km (FIG. 3c-d). […]

T1 sequence (Q99873 whole entry, species assumed): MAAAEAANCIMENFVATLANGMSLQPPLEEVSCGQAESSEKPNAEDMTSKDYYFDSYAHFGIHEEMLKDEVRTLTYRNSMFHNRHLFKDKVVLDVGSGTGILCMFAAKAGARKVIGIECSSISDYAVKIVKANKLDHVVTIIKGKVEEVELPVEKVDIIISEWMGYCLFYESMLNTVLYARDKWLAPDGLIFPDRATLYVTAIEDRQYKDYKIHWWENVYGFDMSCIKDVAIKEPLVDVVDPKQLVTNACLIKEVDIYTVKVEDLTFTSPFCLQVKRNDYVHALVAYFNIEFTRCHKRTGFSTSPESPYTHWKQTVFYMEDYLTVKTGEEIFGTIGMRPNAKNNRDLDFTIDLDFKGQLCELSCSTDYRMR

Q: What does the source list for `Nc1ncnc2c1ncn2[C@@H]1O[C@H](CSCCNC(=O)NCc2ccccc2)[C@@H](O)[C@H]1O` [Compound 7a, 1-(2-((((2S,3S,4R,5R)-5-(6-amino-9H-purin-9-yl)-3,4-dihydroxytetrahydrofuran-2-yl)methyl)thio)ethyl)-3-benzylurea]?
A: inhibition at 10 µM (PRMT1 [1]): 30%; inhibition at 10 µM (PRMT6): < 35%; inhibition at 10 µM (PRMT8): < 35%; IC50 (PRMT3/4/5): 138 to 351 nM; ΔTm at 100 µM (PRMT1 [2]): 0.6 °C; ΔTm at 100 µM (PRMT4): 2.6 °C; inhibition mechanism vs peptide substrate, PRMT3 (PRMT3; H4-21 15 to 240 μM, SAM 30 μM fixed): noncompetitive to the peptide substrate; inhibition mechanism vs SAM, PRMT3 (PRMT3; SAM 30 to 240 μM, H4-21 30 μM fixed): competitive to SAM
